Converted amounts (≈) assume the structure as drawn. “And” between values parts separate entries of the source, which are not always exact repeats. Equal values may be shown once. Read-outs that look alike come from different tables or passages of the source.
Experiments:
[1] = Rotating disk electrode and cyclic voltammetry on glassy carbon, 1 mM compound in 1 M sulfuric acid; format: physicochemical; conditions: for Diffusion Coefficient, (cm^2 s^-1): Levich plot; for Transfer Coefficient, an: Tafel analysis; for Exchange Current Density, (A cm^-2): glassy carbon RDE; for Rate Constant, k°: obtained from exchange current density
Method: Measurement of kinetic parameters and diffusion coefficients was conducted in a three-electrode cell consisting of a rotating glassy carbon disk working electrode, a platinum wire counter electrode, and a mercury/mercuric sulfate reference electrode (E° = +0.65 V). […] The solutions were de-aerated and kept under a blanket of argon gas throughout all the experiments. All measurements were conducted in the potentiodynamic mode (Versastat 300 potentiostat) at a scan rate of 5 mV s^-1 over a range of rotation rates (500 rpm to 3000 rpm). Impedance measurements were also made at each rotation rate. Cyclic voltammetry was conducted on a static glassy carbon electrode at a scan rate of 50 mV s^-1.
(§1) Where n is the number of electrons transferred, F, the Faraday constant, A, electrode area, Do, the diffusion coefficient, v, the kinematic viscosity of the solution and C*, the bulk concentration of the reactants. For n = 2, an active electrode area of 0.1925 cm^2, and a kinematic viscosity of the electrolyte of 0.01 cm^2 s^-1, we were able to evalulate the diffusion coefficient from the slope of the straight line plots in FIG. 11D.
(§2) To determine the kinetic parameters for the charge-transfer process, namely the rate constant and the apparent transfer coeffcient, the logarithm of the kinetic current (after correction for mass-transport losses) was plotted against the observed overpotentials greater than 100 mV, where the Tafel equation is applicable (Eq. 4 and FIG. 11E).
(§3) Where I is the current, Ilim is the limiting current, Iex is the exchange current density, Co and CR are the concentration of the oxidized and reduced species at the surface of the electrode, Co* and CR* are the bulk concentrations of the oxidized and reduced species, α is the transfer coefficient, n is the number of electrons transferred, F is the Faraday constant, E-Erev is the overpotential, R is the gas constant, and T is the temperature. The rate constant, ko , was obtained from the exchange current density (Eq. 5).
as §1, with “plots.” for “plots in FIG. 11D.”
as §2, with “equation derived from the Butler-Volmer Equation” for “equation”, “: […]” for “(Eq. 4 and FIG. 11E).”
as §3, with “using the relationship” for “(Eq. 5).”

[2] = Solubility
[3] = Cyclic voltammetry in mixed solvent (DMF/water); format: physicochemical; conditions: DMF/water (80% DMF/20%Water for TYLENOL)
[4] = cited from earlier work
[5] = Properties of some common quinones (literature data, Conant and Fieser); format: physicochemical
Excerpt: In a variation as set forth above, the flow battery utilizes a first quinone and a second quinone. Quinones are known to undergo fast electrochemical transformations which are necessary for sustaining high discharge and charge rates in a battery. The facility of electrochemical transformation is characterized by the kinetic parameter termed exchange current density. […] In general, useful quinones are highly soluble in water, chemically stable in strongly acidic/basic solutions, capable of high cell voltage of about 1 V, roundtrip efficiency >80%, and high discharge rate. By selecting a first quinone and a second quinone that are far apart in electrode potential, the cell voltage can be maximized to 1 V. Moreover, the electrode potentials can be modified favorably by substituent groups on the quinones as set forth below. Based on data provided in Table 1 and 2 (J.B. Conant and […]. Am. Chem.

[6] = Cyclic voltammetry in 1 M potassium hydroxide; format: physicochemical
[7] = in water, 25° C; cited from earlier work
[8] = Table 5, MSE E°=+0.65 V, 1 M sulfuric acid
[9] = Table 7, listed as Anthraquinone sulfonic acid

O=C1c2ccccc2C(=O)c2cc(S(=O)(=O)O)ccc21 [Anthraquinone-2-sulfonic acid, anthraquinone-2-sulfonic acid]
Standard Reduction Potentials: E°(formal) Measured ([1]; 1 M sulfuric acid): 0.15 | Diffusion Coefficient, (cm^2 s^-1) ([1]; Table 5, 1 M sulfuric acid): 3.71E-6 cm^2 s^-1 | E½ vs. MSE, Volt [1, 8]: -0.52 Volt | Transfer Coefficient, an ([1]; Table 5): 0.677 | Exchange Current Density, (A cm^-2) ([1]; Table 5, 1 M sulfuric acid): 1.96E-5 A cm^-2 | Rate Constant, k° ([1]; Table 5): 0.000225 cm/s | Diffusion Coefficient (cm2/sec) ([1]; Table 7): 3.35E-6 cm2/sec | Exchange Current density (A/cm^2) ([1]; Table 7): 1.95E-5 A/cm^2 | E½ vs. MSE, Volt ([1]; Table 7, 1 M sulfuric acid): -0.52 Volt | Diffusion Coefficient (cm2/sec) [1, 9]: 3.18E-6 cm2/sec and 3.35E-6 cm2/sec | Exchange Current density (A/cm^2) [1, 9]: 1.95E-5 A/cm^2 and 2.91E-5 A/cm^2 | Standard Reduction Potentials: Experimental (E½ values) vs. NHE ([1]; 1 M sulfuric acid): 0.13 | solubility ([2]; DMF/water, aqueous with cosolvent or surfactant or cyclodextrin, solubility in DMF/water): 700 mM (≈ 202 mg/mL) | solubility ([2]; Solubility, Table 5): 200 mM (≈ 57.7 mg/mL) | solubility ([2]; Solubility, Table 7): 200 mM (≈ 57.7 mg/mL) | solubility ([2]; water, aqueous solubility limit, aqueous): 200 mM (≈ 57.7 mg/mL) | reversibility of the electrochemistry [3]: reversible

O=C1c2ccccc2C(=O)c2c(O)cccc21 [1-hydroxy-9,10-anthraquinone]
Electrode Potential vs. NHE, V [4]: 0.131 V

O=C1c2ccccc2C(=O)c2c1cccc2S(=O)(=O)O [9,10-anthraquinone-1-sulfonic acid]
Electrode Potential vs. NHE, V [4]: 0.183 V

O=C1c2cccc(S(=O)(=O)O)c2C(=O)c2c1cccc2S(=O)(=O)O [1,8 Anthraquinone disulfonic acid]
Diffusion Coefficient (cm2/sec) ([1]; Table 7): 3.39E-6 cm2/sec | Exchange Current density (A/cm^2) ([1]; Table 7): 1.60E-6 A/cm^2 | E½ vs. MSE, Volt ([1]; Table 7, 1 M sulfuric acid): -0.70 Volt

O=C1C=C(S(=O)(=O)O)C=C(S(=O)(=O)O)C1=O [1,2-benzoquinone-3,5-disulfonic acid, 1,2-benzoquinone-3,5-disulfonic acid]
Standard Reduction Potentials: E°(formal) Measured ([1]; 1 M sulfuric acid): 0.87 | kinetic reversibility from cyclic voltammograms ([1]; 1 M sulfuric acid, glassy carbon): rapid oxidation step, but a slower reduction step | Diffusion Coefficient, (cm^2 s^-1) ([1]; Table 5, 1 M sulfuric acid): 3.80E-6 cm^2 s^-1 | E½ vs. MSE, Volt [1, 8]: 0.45 Volt | Transfer Coefficient, an ([1]; Table 5): 0.582 | Exchange Current Density, (A cm^-2) ([1]; Table 5, 1 M sulfuric acid): 3.00E-6 A cm^-2 | Rate Constant, k° ([1]; Table 5): 0.000155 cm/s | Standard Reduction Potentials: Experimental (E½ values) vs. NHE ([1]; 1 M sulfuric acid): 1.1 | solubility ([2]; Solubility, Table 5): 1000 mM (≈ 268 mg/mL)

O=C1C=CC=CC1=O [1,2-benzoquinone (ortho), 1,2-benzoquinone]
electrode potential higher relative to 1,4-benzoquinone (para-quinone) [5]: approximately 85 mV | Electrode Potential vs. NHE, V [4]: 0.786 V

Oc1ccc(O)cc1 [Hydroquinone]
Standard Reduction Potentials: E°(formal) Measured ([1]; 1 M sulfuric acid): 0.68 | Diffusion Coefficient, (cm^2 s^-1) ([1]; Table 5, 1 M sulfuric acid): 5.03E-6 cm^2 s^-1 | E½ vs. MSE, Volt [1, 8]: 0.02 Volt | Transfer Coefficient, an ([1]; Table 5): 0.508 | Exchange Current Density, (A cm^-2) ([1]; Table 5, 1 M sulfuric acid): 5.09E-5 A cm^-2 | Rate Constant, k° ([1]; Table 5): 0.00236 cm/s | Diffusion Coefficient (cm2/sec) ([1]; Table 7): 5.03E-6 cm2/sec and 5.4E-6 cm2/sec | Exchange Current density (A/cm^2) ([1]; Table 7): 9.17E-5 A/cm^2 | Tafel Slope, mV/decade, dη/d(log I) ([1]; Table 7): 110 mV/decade | E½ vs. MSE, Volt ([1]; Table 7, 1 M sulfuric acid): 0.02 Volt | Standard Reduction Potentials: Experimental (E½ values) vs. NHE ([1]; 1 M sulfuric acid): 0.67 | solubility ([2]; Solubility, Table 5): 530 mM (≈ 58.4 mg/mL) | solubility ([2]; Solubility, Table 7): 530 mM (≈ 58.4 mg/mL)

CC(=O)Nc1ccc(O)cc1 [TYLENOL®, reference compound]
reversibility of the electrochemistry [3]: DMF does not enhance the reversibility

O=C1C=CC(=O)c2ccccc21 [1,4-naphthaquinone]
Electrode Potential vs. NHE, V [4]: 0.483 V

O=C1c2cccc(O)c2C(=O)c2c(O)cccc21 [1,8-dihydroxy anthraquinone, 1,8-dihydroxy anthraquinone]
reversible peak potential vs. MMO [6]: approximately -0.60 V

O=S(=O)(O)c1cc(O)ccc1O [Hydroquinone sulfonic acid]
Standard Reduction Potentials: E°(formal) Measured ([1]; 1 M sulfuric acid): 0.70 | Diffusion Coefficient, (cm^2 s^-1) ([1]; Table 5, 1 M sulfuric acid): 4.28E-6 cm^2 s^-1 | E½ vs. MSE, Volt [1, 8]: 0.17 Volt | Transfer Coefficient, an ([1]; Table 5): 0.418 | Exchange Current Density, (A cm^-2) ([1]; Table 5, 1 M sulfuric acid): 1.10E-5 A cm^-2 | Rate Constant, k° ([1]; Table 5): 0.000552 cm/s | Diffusion Coefficient (cm2/sec) ([1]; Table 7): 4.28E-6 cm2/sec | Exchange Current density (A/cm^2) ([1]; Table 7): 2.59E-5 A/cm^2 | Tafel Slope, mV/decade, dη/d(log I) ([1]; Table 7): 63 mV/decade | E½ vs. MSE, Volt ([1]; Table 7, 1 M sulfuric acid): 0.17 Volt | Standard Reduction Potentials: Experimental (E½ values) vs. NHE ([1]; 1 M sulfuric acid): 0.82 | solubility ([2]; Solubility, Table 5): 800 mM (≈ 152 mg/mL) | solubility ([2]; Solubility, Table 7): 800 mM (≈ 152 mg/mL)

O=C1C(=O)C(Cl)=C(Cl)C(Cl)=C1Cl [Tetrachloro-1,2-benzoquinone]
Electrode Potential vs. NHE, V [4]: 0.823 V

Hydroquinone disulfonic acid
Diffusion Coefficient (cm2/sec) ([1]; Table 7): 3.80E-6 cm2/sec and 4.04E-6 cm2/sec | Exchange Current density (A/cm^2) ([1]; Table 7): 3.47E-6 A/cm^2 | Tafel Slope, mV/decade, dη/d(log I) ([1]; Table 7): 123 mV/decade | E½ vs. MSE, Volt ([1]; Table 7, 1 M sulfuric acid): 0.45 Volt | solubility ([2]; Table 7): 1000 mM

O=C1C=C(S(=O)(=O)O)C(=O)c2ccccc21 [1,4-naphthaquinone-2-sulfonic acid]
Electrode Potential vs. NHE, V [4]: 0.534 V

anthraquinone-2-sulfonic acid salt
reversible peak potential vs. MMO [6]: about -0.4 V

O=C1C=CC(=O)C=C1 [1,4-benzoquinone (para), 1,4-benzoquinone]
Electrode Potential vs. NHE, V [4]: 0.700 V

O=c1[nH][nH]c(=O)c2ccccc12 [Phthalyl hydrazide]
Diffusion Coefficient (cm2/sec) ([1]; Table 7): 1.07E-6 cm2/sec | Exchange Current density (A/cm^2) ([1]; Table 7): 3.03E-6 A/cm^2 | Tafel Slope, mV/decade, dη/d(log I) ([1]; Table 7): 40 mV/decade | E½ vs. MSE, Volt ([1]; Table 7, 1 M sulfuric acid): 0.5 Volt

O=C1C=C(S(=O)(=O)O)C=C(S(=O)(=O)O)C1=O [benzoquinone disulfonic acid]
solubility [7]: 1.7 mol/L (≈ 456 mg/mL)

O=C1C=CC(=O)C(O)=C1 [2-hydroxyl 1,4-benzoquinone]
Electrode Potential vs. NHE, V [4]: 0.596 V

O=C1c2ccccc2C(=O)c2ccccc21 [9,10-anthraquinone, reference compound]
Standard Reduction Potentials: E°(formal) Measured ([1]; 1 M sulfuric acid): Insoluble | Standard Reduction Potentials: Experimental (E½ values) vs. NHE ([1]; 1 M sulfuric acid): Insoluble | Electrode Potential vs. NHE, V [4]: 0.157 V

Maleic hydrazide
Diffusion Coefficient (cm2/sec) ([1]; Table 7): 6.57E-6 cm2/sec | Exchange Current density (A/cm^2) ([1]; Table 7): 5.86E-6 A/cm^2 | Tafel Slope, mV/decade, dη/d(log I) ([1]; Table 7): 54 mV/decade | E½ vs. MSE, Volt ([1]; Table 7, 1 M sulfuric acid): 0.6 Volt

O=C1C=C(O)C(=O)c2ccccc21 [2-hydroxy-1,4-naphthaquinone]
Electrode Potential vs. NHE, V [4]: 0.357 V

c1ccc2nccnc2c1 [Quinoxaline]
Diffusion Coefficient (cm2/sec) ([1]; Table 7): 1.36E-6 cm2/sec and 1.09E-6 cm2/sec | solubility ([2]; Solubility, Table 7): > 7000 mM

O=C1c2ccc(S(=O)(=O)O)cc2C(=O)c2cc(S(=O)(=O)O)ccc21 [2,7 Anthraquinone disulfonic acid]
Diffusion Coefficient (cm2/sec) ([1]; Table 7): 1.82E-6 cm2/sec | Exchange Current density (A/cm^2) ([1]; Table 7): 7.82E-7 A/cm^2 | E½ vs. MSE, Volt ([1]; Table 7, 1 M sulfuric acid): -0.57 Volt

O=C1C=CC(=O)C=C1 [benzoquinone]
solubility [7]: 0.1 mol/L (≈ 10.8 mg/mL)

From patent US20230113398A1, “INEXPENSIVE METAL-FREE ORGANIC REDOX FLOW BATTERY (ORBAT) FOR GRID-SCALE STORAGE” (UNIVERSITY OF SOUTHERN CALIFORNIA, priority 2013, published 2023)
